One experiment concerns the target T1, hASCT1 (Homo sapiens, UniProt P43007).
T1 construct: expressed in transfected cells; host or cells: HEK293 (ATCC CRL-11268), transient transfection
T1 sequence (P43007 1-532): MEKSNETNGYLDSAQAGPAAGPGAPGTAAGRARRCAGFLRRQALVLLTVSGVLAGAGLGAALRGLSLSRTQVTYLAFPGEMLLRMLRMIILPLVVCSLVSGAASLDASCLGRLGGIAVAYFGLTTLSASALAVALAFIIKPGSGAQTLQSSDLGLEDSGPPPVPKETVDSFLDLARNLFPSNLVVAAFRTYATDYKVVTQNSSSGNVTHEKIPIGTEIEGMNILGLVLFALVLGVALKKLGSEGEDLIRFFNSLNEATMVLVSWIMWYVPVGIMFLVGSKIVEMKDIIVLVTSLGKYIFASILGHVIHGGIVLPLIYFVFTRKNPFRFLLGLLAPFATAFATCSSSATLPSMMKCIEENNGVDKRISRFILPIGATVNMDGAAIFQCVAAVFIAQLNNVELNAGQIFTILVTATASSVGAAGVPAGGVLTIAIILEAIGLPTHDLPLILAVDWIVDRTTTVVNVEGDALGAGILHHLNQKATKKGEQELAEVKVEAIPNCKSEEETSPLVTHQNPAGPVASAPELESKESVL
Description: Electrophysiology (whole-cell current recording) of transfected HEK293 cells, hASCT1. As to conditions: apparent Ki in the absence of substrate, HEK293, mean ± SD; read-out: Ki hASCT1. It is filed as cell-based.

In another experiment the target is T2, EAAC1 (UniProt P51907).
T2 construct: Ki EAAC1; other: apparent Ki, HEK293, internal solution 10 mM glutamate, mean ± SD
T2 sequence (P51907 1-523): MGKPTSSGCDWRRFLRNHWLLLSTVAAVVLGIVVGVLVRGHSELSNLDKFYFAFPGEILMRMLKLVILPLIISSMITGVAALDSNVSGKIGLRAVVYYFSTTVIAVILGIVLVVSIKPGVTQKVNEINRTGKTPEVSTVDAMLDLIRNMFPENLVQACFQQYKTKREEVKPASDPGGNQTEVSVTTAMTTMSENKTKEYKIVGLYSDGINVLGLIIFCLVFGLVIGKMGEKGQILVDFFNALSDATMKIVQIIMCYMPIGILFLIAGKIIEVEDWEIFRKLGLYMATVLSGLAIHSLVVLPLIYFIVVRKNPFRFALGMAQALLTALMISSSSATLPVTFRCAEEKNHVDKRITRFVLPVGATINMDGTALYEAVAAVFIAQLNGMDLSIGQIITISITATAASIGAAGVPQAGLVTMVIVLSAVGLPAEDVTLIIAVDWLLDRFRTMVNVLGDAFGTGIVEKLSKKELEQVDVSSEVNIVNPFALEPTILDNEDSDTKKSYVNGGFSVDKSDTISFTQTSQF
As to the kind of experiment: Electrophysiology specificity experiment in transfected HEK293 cells, EAAC1. It is filed as cell-based. As to conditions: apparent Ki, HEK293, internal solution 10 mM glutamate, mean ± SD. As for the experimental part: Cells were maintained at 37° C. in a fully humidified atmosphere containing 5% CO2. rASCT2, hASCT2, hASCT1, EAAT1, EAAT2, EAAC1, EAAT5 and YFP complementary DNAs were each used to transiently transfect HEK293 using POLYPLUS Jet-prime transfection reagent. Cells were analyzed using electrophysiological techniques 24-40 hours after transfection.
Stock solutions of inhibitor was prepared in dimethyl sulfoxide (DMSO) up to 100 mM. Dilutions to working concentrations were made using external buffer. […] For rASCT2, hASCT2 and hASCT1, external buffer contained 140 mM NaCl, 2 mM MgCl2, 2 mM CaCl2), and 10 mM HEPES, pH 7.40 while internal pipette solution comprised of 130 mM NaSCN, 2 mM MgCl2, 10 mM EGTA, 10 mM HEPES and 10 mM alanine, pH 7.40. For specificity experiments with EAAT1, EAAT2, EAAC1 and EAAT5, internal solution contained 10 mM glutamate instead of alanine. Compounds were applied to HEK293 cells expressing DNA of interest suspended from a current recording electrode in whole cell configuration through a rapid solution exchange device. Cells are immersed in external buffer bath used to dissolve the inhibitors. The open pipette resistance was between 3 and 6 MΩ. Series resistance was not compensated in these experiments due to relatively small currents. Currents traces were recorded using an Adams and List EPC7 amplifier and digitized using a Molecular Devices Digidata A/D converter.
Linear and nonlinear curve fitting of the experimental data were analyzed using MicroCal Origin software. Nonlinear dose-response relationships were fitted with a Michaelis-Menten-like equation to obtain apparent Ki values in the absence of substrate (see TABLE 2 for Ki values). […] At least four experiments were performed with at least three different cells. Error bars in all graphs, e.g., in FIG. 1B and FIG. 1C and tables (Ki values) represent mean±SD.

Turning to `O=C(O[C@@H]1CN[C@H](C(=O)O)C1)c1ccc(-c2ccccc2)cc1` [SN 05], the values for the Ki at hASCT1 and at EAAC1 were 2770 ± 100 nM and 7230 ± 1400 nM, respectively.
For `O=C(O)[C@@H]1C[C@H](OCc2ccc(-c3ccccc3)cc2)CN1` [SN 39], in that order: 2820 ± 100 nM and 1270 ± 200 nM.
Consider `O=C(O[C@@H]1CN[C@H](C(=O)O)C1)c1ccc(-c2ccccc2)nc1` [SN 19], for which the Ki on hASCT1 was 4370 ± 800 nM; at EAAC1, 14200 ± 700 nM.
In the case of `Cc1ccccc1-c1ccc(C(=O)O[C@@H]2CN[C@H](C(=O)O)C2)cc1` [SN 10], the Ki worked out at 1330 ± 300 nM on hASCT1 and 1990 ± 400 nM on EAAC1.
On to `O=C(O[C@@H]1CN[C@H](C(=O)O)C1)c1ccc(-c2ccc(F)cc2)cc1` [SN 08], for which the Ki came out at 900 ± 100 nM at hASCT1 and 690 ± 100 nM at EAAC1.
`Cc1ccccc1-c1ccc(C(=O)O[C@@H]2CN[C@H](C(=O)O)C2)cc1C` [SN 11]: the Ki is 8200 ± 800 nM on hASCT1 and 950 ± 200 nM on EAAC1.
Consider `O=C(O[C@@H]1CN[C@H](C(=O)O)C1)c1ccc(-c2ccc(C(F)(F)F)cc2)cc1` [SN 09], for which the figures for the Ki at hASCT1 and at EAAC1 were 440 ± 100 nM and 1250 ± 200 nM, respectively.
`N[C@@H](COC(=O)c1ccc(NC(=O)c2ccccc2)cc1)C(=O)O` [SN 25]: the Ki came to 11600 ± 1800 nM at hASCT1 and 12300 ± 1900 nM on EAAC1.

(Values after US20230416199A1, “INHIBITORS OF AMINO ACID TRANSPORT” (ICAHN SCHOOL OF MEDICINE AT MOUNT SINAI, priority 2020, published 2023).)
